{"source": "patent US20260124192A1", "about": "“COMPOUNDS, COMPOSITIONS, AND METHODS OF TREATING RNA VIRAL INFECTIONS” (priority 2024, published 2026)", "tested_on": "13 viruses and variants", "assay": "organism not typed", "type": "cell-based"}
{"compound": "Cc1c(-c2ccc(O)cc2)n(Cc2ccc(OCCN3CCCCC3)cc2)c2ccc(O)cc12", "note": "[Pipendoxifene]", "values": [{"measurement": "potency", "result": "submicromolar potency"}]}
